Assay results: paper PMC9503898, “Synthesis and Evaluation of Two Long-Acting SSTR2 Antagonists for Radionuclide Therapy of Neuroendocrine Tumors” (Pharmaceuticals, 2022)
Positions of bridges follow the written chain, without caps; N, C: chain ends. Non-standard residues stand in square brackets, D forms with d. Residues, ends and D or L forms follow the SMILES beside them. *: point of attachment. DOTA = O=C(O)CN1CCN(CC(=O)O)CCN(CC(=O)*)CCN(CC(=O)O)CC1; dPhe(4-NHCONH2) = NC(=O)Nc1ccc(C[C@@H](N)C(=O)O)cc1; Butanoyl(4-(4-MeO-phenyl)) = COc1ccc(CCCC(=O)*)cc1; Butanoyl(4-(4-I-phenyl)) = O=C(CCCc1ccc(I)cc1)*; Dihydroorotyl(S) = O=C1C[C@@H](C(=O)*)NC(=O)N1; Phe(4-Cl) = N[C@@H](Cc1ccc(Cl)cc1)C(=O)O; Phe(4-NH2) = Nc1ccc(C[C@H](N)C(=O)O)cc1

Assays:
[1] = molecular target: T1, SSTR2 receptor (U2OS-SSTR2 cells) (Homo sapiens, UniProt P30874); assay: Competitive binding assay against [^177Lu]Lu-JR11; details: radioligand [^177Lu]Lu-JR11 10^−9 M, unlabeled compound 10^−12 to 10^−5 M, 90 min, 37 °C, triplicate
T1 construct: expressed in transfected cells; host or cells: U2OS human osteosarcoma cells stably expressing SSTR2
T1 sequence (P30874 whole entry): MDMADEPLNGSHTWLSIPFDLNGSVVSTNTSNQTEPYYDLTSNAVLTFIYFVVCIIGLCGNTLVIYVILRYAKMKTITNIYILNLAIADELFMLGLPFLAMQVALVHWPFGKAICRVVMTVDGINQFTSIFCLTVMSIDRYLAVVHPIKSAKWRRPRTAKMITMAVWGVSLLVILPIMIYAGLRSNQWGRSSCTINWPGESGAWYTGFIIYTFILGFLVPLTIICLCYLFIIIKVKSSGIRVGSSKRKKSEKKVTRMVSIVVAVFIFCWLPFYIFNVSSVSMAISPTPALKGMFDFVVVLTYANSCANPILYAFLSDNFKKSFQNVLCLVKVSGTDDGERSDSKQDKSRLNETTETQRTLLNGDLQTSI
Method: Human osteosarcoma cells (U2OS) stably expressing the SSTR2 receptor were used in all in vitro cell assays. Cells were cultured in Dulbecco’s modified Eagle’s medium (DMEM) from Gibco (Paisley, UK) supplemented with 2 mM L-glutamine, 10% fetal bovine serum (FBS), 50 units/mL penicillin, and 50 μg/mL streptomycin (Sigma Aldrich; Haarlerbergweg, The Netherlands) and maintained at 37 °C and in a 5% CO2 humidified chamber. Passages were performed weekly using trypsin/EDTA (0.05%/0.02% w/v).
Competitive binding experiments against [^177Lu]Lu-JR11 were performed with 8a and 8b in U2OS-SSTR2 cells. Cells were seeded in a 24-well plate 24 h in advance (2 × 10^5 cells/well). On the day of the experiment, medium was removed, and the cells were washed once with PBS (Gibco). Then, solutions containing unlabeled compound 8a or 8b in increasing concentrations (10^−12 to 10^−5 M) in internalization medium (DMEM media, 20 mM HEPES, 1% BSA, pH 7.4) were added, followed by the addition of [^177Lu]Lu-JR11 (10^−9 M). For each concentration, experiments were performed in triplicate. Cells were incubated at 37 °C for 90 min. After incubation, medium was removed, and cells were washed once with PBS and lysed with 0.5 M sodium hydroxide (NaOH) for 10 min at rt. The lysate was transferred to counting tubes, and measurement was performed using the γ-counter.

Stability in PBS = assay type: physicochemical; details: % intact radiolabeled ligand, ~3 MBq in PBS (300 μL), 37 °C, radio-HPLC, n = 1
Method: (§1) The ^177Lu-labeled compounds (~3 MBq) were incubated in PBS (300 μL) at 37 °C. The stability of the radiolabeled peptides was verified by radio-HPLC at 1, 4, and 24 h. The stability in serum was determined by incubating the radiolabeled compounds (~3 MBq) into 150 μL of mouse serum (Merck; Haarlerbergweg, The Netherlands) at 37 °C. At 1, 4, and 24 h post-incubation, the proteins were precipitated by adding an aliquot of 35 μL of the mixture to an equal volume of ACN. The vial was vortexed and centrifuged for 20 min. stability was monitored by radio-HPLC (Figures S4 and S5).

Stability in mouse serum = assay type: in vitro ADME; details: % intact radiolabeled ligand, ~3 MBq in 150 μL mouse serum, 37 °C, ACN protein precipitation, radio-HPLC, n = 1
Method: as §1

[2] = Determination of lipophilicity (LogD7.4, shake-flask); assay type: physicochemical; details: n-octanol/PBS (1:1), pH 7.4, PBS/n-octanol 1:1 (1 mL), ~1.5 MBq, gamma counter, n = 3 (triplicate), mean ± SEM, read-out: Log D7.4
Method: The distribution coefficient (LogD7.4) of the ^177Lu-labeled peptides was determined by the shake-flask method. For each radioligand, the experiment was performed in triplicate. The radiolabeled compound (~1.5 MBq) was added to a solution of phosphate buffered saline (PBS)/n-octanol (1 mL, v:v = 1:1) in eppendorf vials. The vials were vortexed vigorously and centrifuged at 10,000 rpm for 3 min. The n-octanol phase was separated from the aqueous phase, poured into new vials, and centrifuged for 15 min. Samples from each phase (10 μL) were measured using a gamma counter. The LogD7.4 value was calculated using the following equation: […].

In vivo SPECT/CT imaging = details: mouse, H69 xenograft tumor, iv, 20 MBq/0.5 nmol per animal, total radioactivity
[3] = tested on: mice bearing SSTR2-positive H69 xenografts; assay: In vivo SPECT/CT imaging; details: H69 xenograft mice, i.v. 20 MBq/0.5 nmol, n = 4
human albumin = human albumin (Homo sapiens, UniProt P02768); assay: Albumin binding properties (ultrafiltration); details: ~1 MBq in human albumin/PBS (500 µL, v:v = 1:4), 1 h, 37 °C; Centrifree ultrafiltration 30 KDa; gamma counter; n = 3, mean ± SEM
human albumin, sequence (P02768 25-609): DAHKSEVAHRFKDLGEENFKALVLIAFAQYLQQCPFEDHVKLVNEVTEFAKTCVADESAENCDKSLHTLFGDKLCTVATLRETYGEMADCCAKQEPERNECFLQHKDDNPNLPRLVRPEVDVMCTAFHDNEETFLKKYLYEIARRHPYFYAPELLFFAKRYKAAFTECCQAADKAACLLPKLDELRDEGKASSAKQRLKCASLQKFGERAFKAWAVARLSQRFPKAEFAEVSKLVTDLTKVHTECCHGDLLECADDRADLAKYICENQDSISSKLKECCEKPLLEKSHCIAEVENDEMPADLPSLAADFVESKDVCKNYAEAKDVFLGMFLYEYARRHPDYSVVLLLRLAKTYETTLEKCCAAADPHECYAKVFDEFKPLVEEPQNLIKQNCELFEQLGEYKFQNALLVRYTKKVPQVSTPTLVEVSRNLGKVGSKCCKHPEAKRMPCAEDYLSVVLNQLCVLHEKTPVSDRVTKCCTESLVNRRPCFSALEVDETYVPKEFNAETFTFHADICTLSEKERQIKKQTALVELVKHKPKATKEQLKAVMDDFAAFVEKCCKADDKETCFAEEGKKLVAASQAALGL

C[C@@H](O)[C@@H]1NC(=O)[C@H](CCCCN)NC(=O)[C@@H](Cc2ccc(NC(N)=O)cc2)NC(=O)[C@H](Cc2ccc(NC(=O)[C@@H]3CC(=O)NC(=O)N3)cc2)NC(=O)[C@H](NC(=O)[C@H](Cc2ccc(Cl)cc2)NC(=O)[C@H](CCCCNC(=O)CCCc2ccc(I)cc2)NC(=O)CN2CCN(CC(=O)O)CCN(CC(=O)O)CCN(CC(=O)O)CC2)CSSC[C@@H](C(=O)N[C@H](Cc2ccc(O)cc2)C(N)=O)NC1=O [8a, DOTA-Lys(4-(p-iodophenyl)butyryl)-Phe(4-Cl)-c[D-Cys-Aph(Hor)-D-Aph(Cbm)-Lys-Thr-Cys]-D-Tyr-NH2] ({DOTA}-K(Butanoyl(4-(4-I-phenyl)))[Phe(4-Cl)][dC][Phe(4-NH2)](Dihydroorotyl(S))[dPhe(4-NHCONH2)]KTC[dY]-NH2; disulfide 3-8)
IC50 [1]: 80 ± 0.43 nM

COc1ccc(CCCC(=O)NCCCC[C@H](NC(=O)CN2CCN(CC(=O)O)CCN(CC(=O)O)CCN(CC(=O)O)CC2)C(=O)N[C@@H](Cc2ccc(Cl)cc2)C(=O)N[C@@H]2CSSC[C@@H](C(=O)N[C@H](Cc3ccc(O)cc3)C(N)=O)NC(=O)[C@H]([C@@H](C)O)NC(=O)[C@H](CCCCN)NC(=O)[C@@H](Cc3ccc(NC(N)=O)cc3)NC(=O)[C@H](Cc3ccc(NC(=O)[C@@H]4CC(=O)NC(=O)N4)cc3)NC2=O)cc1 [8b, DOTA-Lys(4-(p-methoxyphenyl)butyryl)-Phe(4-Cl)-c[D-Cys-Aph(Hor)-D-Aph(Cbm)-Lys-Thr-Cys]-D-Tyr-NH2] ({DOTA}-K(Butanoyl(4-(4-MeO-phenyl)))[Phe(4-Cl)][dC][Phe(4-NH2)](Dihydroorotyl(S))[dPhe(4-NHCONH2)]KTC[dY]-NH2; disulfide 3-8)
IC50 [1]: 130 ± 0.3 nM

C[C@@H](O)[C@@H]1NC(=O)[C@H](CCCCN)NC(=O)[C@@H](Cc2ccc(NC(N)=O)cc2)NC(=O)[C@H](Cc2ccc(NC(=O)[C@@H]3CC(=O)NC(=O)N3)cc2)NC(=O)[C@H](NC(=O)[C@H](Cc2ccc(Cl)cc2)NC(=O)CN2CCN(CC(=O)O)CCN(CC(=O)O)CCN(CC(=O)O)CC2)CSSC[C@@H](C(=O)N[C@H](Cc2ccc(O)cc2)C(N)=O)NC1=O [JR11, reference compound] ({DOTA}-[Phe(4-Cl)][dC][Phe(4-NH2)](Dihydroorotyl(S))[dPhe(4-NHCONH2)]KTC[dY]-NH2; disulfide 2-7)
IC50 [1]: 2.7 ± 0.26 nM

COc1ccc(CCCC(=O)NCCCC[C@H](NC(=O)CN2CCN(CC(=O)O)CCN(CC(=O)O)CCN(CC(=O)O)CC2)C(=O)N[C@@H](Cc2ccc(Cl)cc2)C(=O)N[C@@H]2CSSC[C@@H](C(=O)N[C@H](Cc3ccc(O)cc3)C(N)=O)NC(=O)[C@H]([C@@H](C)O)NC(=O)[C@H](CCCCN)NC(=O)[C@@H](Cc3ccc(NC(N)=O)cc3)NC(=O)[C@H](Cc3ccc(NC(=O)[C@@H]4CC(=O)NC(=O)N4)cc3)NC2=O)cc1 [[^177Lu]Lu-8b, metal not drawn] ({DOTA}-K(Butanoyl(4-(4-MeO-phenyl)))[Phe(4-Cl)][dC][Phe(4-NH2)](Dihydroorotyl(S))[dPhe(4-NHCONH2)]KTC[dY]-NH2; disulfide 3-8)
Stability in PBS (%) 1 h (Stability in PBS; 1 h): 97.1% | Stability in PBS (%) 4 h (Stability in PBS; 4 h): 96.4% | Stability in PBS (%) 24 h (Stability in PBS; 24 h): 95.4% | remaining at 1 h (Stability in mouse serum; 1 h): 98% | remaining at 4 h (Stability in mouse serum; 4 h): 97.9% | remaining at 24 h (Stability in mouse serum; 24 h): 98.5% | logD [2]: -2.07 ± 0.02 | tissue uptake per volume at 4 h (In vivo SPECT/CT imaging): 2.7 ± 0.2 %ID/mL | tissue uptake per volume at 24 h (In vivo SPECT/CT imaging): 1 ± 0.1 %ID/mL | tissue uptake per volume at 48 h (In vivo SPECT/CT imaging): 0.8 ± 0.1 %ID/mL | tissue uptake per volume at 72 h (In vivo SPECT/CT imaging): 0.6 ± 0.1 %ID/mL | SPECT quantification, kidneys (K), 4 h ([3]; 4 h post-injection): 14.8 ± 1.2 % ID/mL | SPECT quantification, kidneys (K), 24 h ([3]; 24 h post-injection): 7.5 ± 0.4 % ID/mL | SPECT quantification, kidneys (K), 48 h ([3]; 48 h post-injection): 4.3 ± 0.3 % ID/mL | SPECT quantification, kidneys (K), 72 h ([3]; 72 h post-injection): 3.1 ± 0.5 % ID/mL | Protein-Bound Fraction (%) (human albumin): 56.3 ± 1.4%
